Measurements published in PubChem BioAssay AID248 (DTP/NCI, 2004).
Several values for one entry are separate records, joined by “and”; a condition that tells them apart may be missing. Identical values can stand only once. Toxic doses and inconclusive results are not listed. No stated cut-off is given here; in the data, active means T/C of 150% or more; inactive means T/C below 125%.

Test system: L1210 leukemia ip in BDF1 mice, survival T/C
Test: NCI In Vivo Anticancer Drug Screen. Data for tumor model L1210 Leukemia (intraperitoneal) in B6D2F1 (BDF1) mice
Details: endpoint: mean survival time, higher = longer survival
In short: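 Antitumor effect is assessed in tumor-bearing animals. Survival in the compound arm is compared with a vehicle-dosed control arm and expressed as their quotient.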

[1] = dose: 50.0 mg/kg/injection, schedule: Q01DX001 (ip), vehicle: saline
[2] = dose: 100.0 mg/kg/injection, schedule: Q01DX001 (ip), vehicle: saline
[3] = dose: 100.0 mg/kg/injection, schedule: Q04DX002 (ip), vehicle: Klucel (hydroxypropylcellulose) (HPC)
[4] = dose: 200.0 mg/kg/injection, schedule: Q01DX001 (ip), vehicle: saline
[5] = dose: 400.0 mg/kg/injection, schedule: Q01DX001 (ip), vehicle: saline
[6] = dose: 100.0 mg/kg/injection, schedule: Q01DX001 (ip), vehicle: carboxymethylcellulose (CMC)
[7] = dose: 200.0 mg/kg/injection, schedule: Q01DX001 (ip), vehicle: carboxymethylcellulose (CMC)
[8] = dose: 400.0 mg/kg/injection, schedule: Q01DX001 (ip), vehicle: carboxymethylcellulose (CMC)
[9] = dose: 25.0 mg/kg/injection, schedule: Q01DX009 (ip), vehicle: saline with Tween-80
[10] = dose: 25.0 mg/kg/injection, schedule: Q04DX003 (ip), vehicle: saline with Tween-80
[11] = dose: 50.0 mg/kg/injection, schedule: Q01DX009 (ip), vehicle: saline with Tween-80
[12] = dose: 50.0 mg/kg/injection, schedule: Q04DX003 (ip), vehicle: saline with Tween-80
[13] = dose: 100.0 mg/kg/injection, schedule: Q01DX009 (ip), vehicle: Klucel (hydroxypropylcellulose) (HPC)
[14] = dose: 100.0 mg/kg/injection, schedule: Q04DX003 (ip), vehicle: Klucel (hydroxypropylcellulose) (HPC)
[15] = dose: 200.0 mg/kg/injection, schedule: Q01DX009 (ip), vehicle: Klucel (hydroxypropylcellulose) (HPC)
[16] = dose: 200.0 mg/kg/injection, schedule: Q04DX003 (ip), vehicle: Klucel (hydroxypropylcellulose) (HPC)
[17] = dose: 400.0 mg/kg/injection, schedule: Q01DX009 (ip), vehicle: Klucel (hydroxypropylcellulose) (HPC)
[18] = dose: 400.0 mg/kg/injection, schedule: Q04DX003 (ip), vehicle: Klucel (hydroxypropylcellulose) (HPC)
[19] = dose: 200.0 mg/kg/injection, schedule: Q04DX002 (ip), vehicle: Klucel (hydroxypropylcellulose) (HPC)
[20] = dose: 400.0 mg/kg/injection, schedule: Q04DX002 (ip), vehicle: Klucel (hydroxypropylcellulose) (HPC)
[21] = dose: 100.0 mg/kg/injection, schedule: Q04DX003 (ip), vehicle: saline
[22] = dose: 200.0 mg/kg/injection, schedule: Q04DX003 (ip), vehicle: saline
[23] = dose: 100.0 mg/kg/injection, schedule: Q01DX009 (ip), vehicle: saline with Tween-80
[24] = dose: 100.0 mg/kg/injection, schedule: Q04DX003 (ip), vehicle: saline with Tween-80
[25] = dose: 200.0 mg/kg/injection, schedule: Q01DX009 (ip), vehicle: saline with Tween-80

Measured: T/C

CCCCCCCCC1OC1CCCCCCCC(=O)O (configuration not stated)
inactive: dose: 25.0 mg/kg/injection, schedule: Q04DX002 (ip), vehicle: Klucel (hydroxypropylcellulose) (HPC) 108 % of control | [1] 90 % of control | dose: 50.0 mg/kg/injection, schedule: Q04DX002 (ip), vehicle: Klucel (hydroxypropylcellulose) (HPC) 101 % of control | [2] 97 % of control | [3] 101 % of control | [4] 101 % of control | [5] 90 % of control

S=P1(c2ccccc2)Nc2cc(Cl)ccc2S1 (configuration not stated)
inactive: [1] 105 % of control | [2] 106 % of control

Nc1nc(N)c(CCCOc2ccc(NC(=O)CBr)cc2)c(N)n1
inactive: dose: 12.5 mg/kg/injection, schedule: Q01DX001 (ip), vehicle: Klucel (hydroxypropylcellulose) (HPC) 98 % of control | dose: 25.0 mg/kg/injection, schedule: Q01DX001 (ip), vehicle: Klucel (hydroxypropylcellulose) (HPC) 100 % of control | dose: 50.0 mg/kg/injection, schedule: Q01DX001 (ip), vehicle: Klucel (hydroxypropylcellulose) (HPC) 105 % of control

O=C1C(Cl)=C(Nc2ccc(Cl)cc2)C(=O)c2ccccc21
inactive: dose: 50.0 mg/kg/injection, schedule: Q01DX001 (ip), vehicle: carboxymethylcellulose (CMC) 95 % of control | [6] 89 % of control | [7] 98 % of control | [8] 93 % of control

BrCC1CCCCO1 (configuration not stated)
inactive: dose: 12.5 mg/kg/injection, schedule: Q01DX009 (ip), vehicle: saline with Tween-80 94 % of control | dose: 12.5 mg/kg/injection, schedule: Q04DX003 (ip), vehicle: saline with Tween-80 108 % of control | [9] 99 % of control | [10] 108 % of control | [11] 99 % of control | [12] 97 % of control

O=C(Nc1ccc(N=C(NC2CCCCC2)c2ccccc2)cc1)c1ccc(C(=O)Nc2ccc(N=C(NC3CCCCC3)c3ccccc3)cc2)cc1
inactive: dose: 15.0 mg/kg/injection, schedule: Q01DX Z (ip), vehicle: carboxymethylcellulose (CMC) 101 % of control | dose: 30.0 mg/kg/injection, schedule: Q01DX Z (ip), vehicle: carboxymethylcellulose (CMC) 97 % of control | dose: 60.0 mg/kg/injection, schedule: Q01DX Z (ip), vehicle: carboxymethylcellulose (CMC) 101 % of control | dose: 120.0 mg/kg/injection, schedule: Q01DX Z (ip), vehicle: carboxymethylcellulose (CMC) 97 % of control

O=C(NCCCl)Nc1cccc2cc3ccccc3cc12
inactive: [13] 95 % of control | [14] 96 % of control | [15] 103 % of control | [16] 96 % of control | [17] 95 % of control | [18] 102 % of control

Cc1ccc(NC(=O)COc2ccc(Cl)cc2Cl)cc1NC(=O)COc1ccc(Cl)cc1Cl
inactive: [3] 89 % of control | [19] 92 % of control | [20] 100 % of control

CC1(C)COCN1CN1COCC1(C)C
inactive: [21] 101 % of control | [22] 95 % of control

O=NC1C(Cl)C2CC1C1COCC21 (configuration not stated)
inactive: dose: 100.0 mg/kg/injection, schedule: Q01DX001 (ip), vehicle: Klucel (hydroxypropylcellulose) (HPC) 97 % of control | dose: 200.0 mg/kg/injection, schedule: Q01DX001 (ip), vehicle: Klucel (hydroxypropylcellulose) (HPC) 90 % of control | dose: 400.0 mg/kg/injection, schedule: Q01DX001 (ip), vehicle: Klucel (hydroxypropylcellulose) (HPC) 89 % of control

CC(=O)NC1CCCC2CCCCC21 (configuration not stated)
inactive: [23] 94 % of control and 99 % of control | [24] 93 % of control | [25] 109 % of control and 100 % of control | dose: 200.0 mg/kg/injection, schedule: Q04DX003 (ip), vehicle: saline with Tween-80 94 % of control | dose: 400.0 mg/kg/injection, schedule: Q01DX009 (ip), vehicle: saline with Tween-80 103 % of control | dose: 400.0 mg/kg/injection, schedule: Q04DX003 (ip), vehicle: saline with Tween-80 94 % of control

COC(=O)CCCCCNC(=O)NCCCCCC(=O)OC
inactive: [13] 90 % of control | [14] 95 % of control | [15] 87 % of control | [16] 93 % of control | [17] 90 % of control | [18] 93 % of control

O=C(NC1CCCC2CCCCC21)OCCC1CCCCC1 (configuration not stated)
inactive: [2] 95 % of control | [4] 103 % of control | [5] 95 % of control

CC1(C)C2CCC1(C(=O)O)C(=O)C2 (configuration not stated)
inactive: [23] 96 % of control | [25] 95 % of control

O=C(CN1C(=O)CCC1=O)Oc1ccc([N+](=O)[O-])cc1
inactive: [2] 91 % of control | [4] 98 % of control | [5] 102 % of control

CCCCCCCCCCCCCCCCCCNC(=O)Nc1ccc(OC)cc1OC
inactive: [3] 101 % of control | [19] 90 % of control | [20] 90 % of control

CC1CCC(=C(c2ccccc2)c2ccccc2)C(C)N1C (configuration not stated)
inactive: [9] 98 % of control | [10] 107 % of control | [11] 98 % of control | [12] 96 % of control | [23] 90 % of control | [24] 98 % of control and 101 % of control

O=C(Nc1ccc(Cl)cc1)Nc1ccc(Cl)c(C(F)(F)F)c1
inactive: [6] 108 % of control | [7] 111 % of control | [8] 111 % of control

COc1cc(C(=O)Nc2ccc(N(C)C)cc2)cc(OC)c1OC
inactive: dose: 25.0 mg/kg/injection, schedule: Q01DX009 (ip), vehicle: saline 103 % of control | dose: 25.0 mg/kg/injection, schedule: Q04DX003 (ip), vehicle: saline 108 % of control | dose: 50.0 mg/kg/injection, schedule: Q01DX009 (ip), vehicle: saline 108 % of control | dose: 50.0 mg/kg/injection, schedule: Q04DX003 (ip), vehicle: saline 97 % of control | dose: 100.0 mg/kg/injection, schedule: Q01DX009 (ip), vehicle: saline 97 % of control | [21] 100 % of control | dose: 200.0 mg/kg/injection, schedule: Q01DX009 (ip), vehicle: saline 104 % of control | [22] 103 % of control | dose: 400.0 mg/kg/injection, schedule: Q04DX003 (ip), vehicle: saline 100 % of control

CCOC(=O)c1cc([N+](=O)[O-])c([N+](=O)[O-])cc1Cl
inactive: dose: 12.5 mg/kg/injection, schedule: Q04DX003 (ip), vehicle: Klucel (hydroxypropylcellulose) (HPC) 102 % of control | dose: 25.0 mg/kg/injection, schedule: Q04DX003 (ip), vehicle: Klucel (hydroxypropylcellulose) (HPC) 103 % of control | dose: 50.0 mg/kg/injection, schedule: Q04DX003 (ip), vehicle: Klucel (hydroxypropylcellulose) (HPC) 98 % of control

O=C(O)CP(=O)(O)O
inactive: dose: 75.0 mg/kg/injection, schedule: Q04DX003 (ip), vehicle: saline 102 % of control | dose: 150.0 mg/kg/injection, schedule: Q04DX003 (ip), vehicle: saline 102 % of control | dose: 300.0 mg/kg/injection, schedule: Q04DX003 (ip), vehicle: saline 93 % of control
